Laboratory results from article PMC10653918, “Antibiotic that inhibits trans-translation blocks binding of EF-Tu to tmRNA but not to tRNA” (mBio, 2023).
Values after ≈ are worked out from the molar mass of the structure shown. Like-named read-outs stand apart in the source and are kept apart here.

Experiments:
[1] = target: E. coli EF-Tu•GTP (Escherichia coli, UniProt P0CE47); assay: biochemical; assay type: binding
[2] = target: EF-Tu•GDP (Escherichia coli, UniProt P0CE47); assay: MST binding assay, EF-Tu•GDP; design: species or system E. coli
[3] = system: E. coli ∆tolC; assay: microbe, parasite or virus in culture; assay type: cell-based; settings: Escherichia coli
[4] = system: B. anthracis vegetative cells, germinants, and spores; settings: in vitro and after ex vivo infection of macrophages; cited from earlier work
[5] = system: Francisella tularensis; settings: compared with tetracycline; cited from earlier work
[6] = target: EF-Tu•GTP H319A (Escherichia coli, UniProt P0CE47, H320A); assay: MST binding assay, EF-Tu H319A mutant
[7] = target: EF-Tu•GTP E378A (Escherichia coli, UniProt P0CE47, E379A); assay: MST binding assay, EF-Tu E378A mutant
[8] = target: EF-Tu•GTP R318K (Escherichia coli, UniProt P0CE47, R319K); assay: MST binding assay, EF-Tu R318K mutant
[9] = target: EF-Tu•GTP R318N (Escherichia coli, UniProt P0CE47, R319N); assay: MST binding assay, EF-Tu R318N mutant
[10] = system: translation; assay: In vitro translation assay (DHFR with stop codon, no tmRNA-SmpB); settings: DMSO control 100 ± 1
[11] = system: trans-translation; assay: In vitro trans-translation assay (tagging of DHFR from nonstop template with tmRNA-SmpB); settings: 10 µM compound; percentage of total DHFR in tagged DHFR band; DMSO control 90 ± 7
[12] = system: EF-Tu•GTP (Escherichia coli MG1655 (pCA24N tufA, ASKA clone JW3301)); assay: filter binding; settings: 10 mM Mg2+, 44 mM KH2PO4, 6 mM K2HPO4, 10 mM MgCl2, 50 µg/mL BSA, pH 5.5 (RNA-binding mix; 34 µL mix + 16 µL EF-Tu), 0.1 nM RNA, 15 s at room temperature
[13] = no KKL-55, 3'-alanylated with AlaRS

Which “binding to EF-Tu” value [1] does the source give for `O=C(Nc1nnc(-c2ccc(F)cc2)o1)c1ccc(Cl)cc1` [KKL-35, reference compound] here?
Its value is “No binding”.

Which Kd [1] does the source give for `CCCn1nnnc1NC(=O)c1cccc(Cl)c1` [KKL-55] here?
The Kd was 2000 nM.

What about the Kd [2] of the same compound?
The Kd was 1600 ± 20 nM.

And the MIC [3]?
Its MIC is 2.3 µM (≈ 0.611 µg/mL).

And the bactericidal activity [4]?
The bactericidal activity was “bactericidal”.

And the MIC [5]?
Its MIC is “comparable to that of tetracycline”.

What about the Kd [6] of the same compound?
Its Kd is 2400 ± 100 nM.

What about the Kd ([6]; MST, H319A EF-Tu•GTP) of the same compound?
The Kd was “little impact on binding”.

And the Kd [7]?
Its Kd is 2600 ± 200 nM.

And the Kd ([7]; MST, E378A EF-Tu•GTP)?
Its Kd is “little effect on binding affinity”.

What about the Kd [8] of the same compound?
The Kd was 2600 nM.

And the Kd [9]?
The Kd was > 20000 nM.

What about the “translation efficiency ± SD” value ([10]; 100 µM compound) of the same compound?
The value was 102 ± 2%.

And the “tagging efficiency ± SD” value [11]?
Its value is 30 ± 2%.

Which “translation efficiency ± SD” value ([10]; 10 µM compound) does the source give for `O=C(CCCCC1SCC2NC(=O)NC21)NCCn1nnnc1NC(=O)c1cccc(Cl)c1` (centres unmarked) [KKL-201] here?
Its value is 99 ± 6%.

And the “tagging efficiency ± SD” value [11]?
Its value is 42 ± 2%.

For `O=C(N[C@H](CO)[C@H](O)c1ccc([N+](=O)[O-])cc1)C(Cl)Cl` [chlor, chloramphenicol, reference compound], which “translation efficiency ± SD” value ([10]; 100 µM compound) is on record?
The value was 5 ± 3%.

Which Kd [12, 13] does the source give for Ala-tRNAAla here?
Its Kd is 280 nM.

Which Kd ([12]; 25 µM KKL-55 (substantially reduced, no saturation), 3'-alanylated with AlaRS) does the source give for Ala-tmRNA here?
The Kd was > 10000 nM.

What about the Kd [12, 13] of the same compound?
Its Kd is 750 nM.
